Data as given in the NIST ThermoML archive (doi:10.1016/j.jct.2007.03.010).

Assay: excess molar enthalpy (molar enthalpy of mixing); xn = mol fraction of the nth substance listed
Conditions: 101 kPa, Liquid, Calvet calorimetry

CC(O)CN (stereo not drawn) [1-amino-2-propanol] + O
Conditions	excess molar enthalpy [kcal/mol]
298.15 K, x1 = 0.03	-0.119
298.15 K, x1 = 0.0501	-0.186
298.15 K, x1 = 0.0697	-0.241
298.15 K, x1 = 0.1002	-0.324
298.15 K, x1 = 0.1505	-0.419
298.15 K, x1 = 0.2012	-0.488
298.15 K, x1 = 0.2994	-0.572
298.15 K, x1 = 0.3496	-0.593
298.15 K, x1 = 0.3993	-0.592
298.15 K, x1 = 0.4465	-0.579
298.15 K, x1 = 0.494	-0.554
298.15 K, x1 = 0.6033	-0.481
298.15 K, x1 = 0.7155	-0.365
298.15 K, x1 = 0.7954	-0.27
298.15 K, x1 = 0.8847	-0.173
313.15 K, x1 = 0.0304	-0.134
313.15 K, x1 = 0.0701	-0.253
313.15 K, x1 = 0.1001	-0.326
313.15 K, x1 = 0.15	-0.421
313.15 K, x1 = 0.1999	-0.491
313.15 K, x1 = 0.3021	-0.584
313.15 K, x1 = 0.352	-0.601
313.15 K, x1 = 0.4015	-0.598
313.15 K, x1 = 0.5022	-0.556
313.15 K, x1 = 0.591	-0.487
313.15 K, x1 = 0.692	-0.392
313.15 K, x1 = 0.7864	-0.283
313.15 K, x1 = 0.8808	-0.174
323.15 K, x1 = 0.0301	-0.114
323.15 K, x1 = 0.05	-0.171
323.15 K, x1 = 0.0705	-0.244
323.15 K, x1 = 0.0999	-0.308
323.15 K, x1 = 0.1507	-0.401
323.15 K, x1 = 0.1993	-0.473
323.15 K, x1 = 0.2999	-0.551
323.15 K, x1 = 0.3533	-0.577
323.15 K, x1 = 0.4045	-0.587
323.15 K, x1 = 0.507	-0.554
323.15 K, x1 = 0.5849	-0.497
323.15 K, x1 = 0.6741	-0.42
323.15 K, x1 = 0.8125	-0.261
323.15 K, x1 = 0.9073	-0.144

CN(C)CCO [2-(N,N-dimethylamino)ethanol] + O
Conditions	excess molar enthalpy [kcal/mol]
298.15 K, x1 = 0.0299	-0.168
298.15 K, x1 = 0.0705	-0.347
298.15 K, x1 = 0.1008	-0.443
298.15 K, x1 = 0.1501	-0.545
298.15 K, x1 = 0.2052	-0.618
298.15 K, x1 = 0.301	-0.68
298.15 K, x1 = 0.349	-0.692
298.15 K, x1 = 0.4106	-0.69
298.15 K, x1 = 0.4544	-0.673
298.15 K, x1 = 0.5365	-0.615
298.15 K, x1 = 0.6599	-0.48
298.15 K, x1 = 0.7996	-0.298
298.15 K, x1 = 0.9156	-0.133
313.15 K, x1 = 0.0307	-0.168
313.15 K, x1 = 0.0695	-0.314
313.15 K, x1 = 0.1196	-0.46
313.15 K, x1 = 0.2038	-0.584
313.15 K, x1 = 0.2979	-0.652
313.15 K, x1 = 0.349	-0.665
313.15 K, x1 = 0.4063	-0.663
313.15 K, x1 = 0.4925	-0.618
313.15 K, x1 = 0.5885	-0.526
313.15 K, x1 = 0.7046	-0.403
313.15 K, x1 = 0.7891	-0.295
313.15 K, x1 = 0.9076	-0.145
323.15 K, x1 = 0.0301	-0.158
323.15 K, x1 = 0.0705	-0.315
323.15 K, x1 = 0.1217	-0.436
323.15 K, x1 = 0.2027	-0.556
323.15 K, x1 = 0.3001	-0.629
323.15 K, x1 = 0.3486	-0.643
323.15 K, x1 = 0.4001	-0.641
323.15 K, x1 = 0.4995	-0.597
323.15 K, x1 = 0.6093	-0.489
323.15 K, x1 = 0.7618	-0.309
323.15 K, x1 = 0.9197	-0.111

CNCCO [2-(methylamino)ethanol] + O
Conditions	excess molar enthalpy [kcal/mol]
298.15 K, x1 = 0.0302	-0.127
298.15 K, x1 = 0.0514	-0.216
298.15 K, x1 = 0.0695	-0.278
298.15 K, x1 = 0.1002	-0.354
298.15 K, x1 = 0.1485	-0.459
298.15 K, x1 = 0.1992	-0.536
298.15 K, x1 = 0.3021	-0.638
298.15 K, x1 = 0.3471	-0.657
298.15 K, x1 = 0.3996	-0.653
298.15 K, x1 = 0.4471	-0.637
298.15 K, x1 = 0.5017	-0.599
298.15 K, x1 = 0.5992	-0.513
298.15 K, x1 = 0.696	-0.408
298.15 K, x1 = 0.7988	-0.291
298.15 K, x1 = 0.8939	-0.164
313.15 K, x1 = 0.031	-0.128
313.15 K, x1 = 0.05	-0.216
313.15 K, x1 = 0.0704	-0.283
313.15 K, x1 = 0.1011	-0.38
313.15 K, x1 = 0.1488	-0.475
313.15 K, x1 = 0.2003	-0.55
313.15 K, x1 = 0.2983	-0.631
313.15 K, x1 = 0.3491	-0.64
313.15 K, x1 = 0.3986	-0.638
313.15 K, x1 = 0.5035	-0.601
313.15 K, x1 = 0.5833	-0.547
313.15 K, x1 = 0.686	-0.459
313.15 K, x1 = 0.8053	-0.305
313.15 K, x1 = 0.8956	-0.162
323.15 K, x1 = 0.0299	-0.177
323.15 K, x1 = 0.0501	-0.266
323.15 K, x1 = 0.07	-0.325
323.15 K, x1 = 0.1008	-0.396
323.15 K, x1 = 0.1504	-0.472
323.15 K, x1 = 0.2004	-0.531
323.15 K, x1 = 0.2985	-0.614
323.15 K, x1 = 0.3492	-0.631
323.15 K, x1 = 0.4023	-0.633
323.15 K, x1 = 0.5108	-0.592
323.15 K, x1 = 0.6095	-0.512
323.15 K, x1 = 0.6956	-0.414
323.15 K, x1 = 0.8039	-0.279
323.15 K, x1 = 0.8815	-0.179

NCCCO [3-amino-1-propanol] + O
Conditions	excess molar enthalpy [kcal/mol]
298.15 K, x1 = 0.0299	-0.0966
298.15 K, x1 = 0.0705	-0.222
298.15 K, x1 = 0.1203	-0.364
298.15 K, x1 = 0.2	-0.509
298.15 K, x1 = 0.2982	-0.598
298.15 K, x1 = 0.3452	-0.62
298.15 K, x1 = 0.4067	-0.625
298.15 K, x1 = 0.4989	-0.588
298.15 K, x1 = 0.593	-0.519
298.15 K, x1 = 0.7515	-0.366
298.15 K, x1 = 0.8969	-0.17
313.15 K, x1 = 0.0297	-0.115
313.15 K, x1 = 0.0702	-0.245
313.15 K, x1 = 0.12	-0.375
313.15 K, x1 = 0.2007	-0.504
313.15 K, x1 = 0.3015	-0.607
313.15 K, x1 = 0.3458	-0.629
313.15 K, x1 = 0.3982	-0.633
313.15 K, x1 = 0.5034	-0.597
313.15 K, x1 = 0.6045	-0.508
313.15 K, x1 = 0.7564	-0.329
313.15 K, x1 = 0.9333	-0.115
323.15 K, x1 = 0.0298	-0.154
323.15 K, x1 = 0.0718	-0.29
323.15 K, x1 = 0.1192	-0.397
323.15 K, x1 = 0.1996	-0.512
323.15 K, x1 = 0.3018	-0.608
323.15 K, x1 = 0.3493	-0.632
323.15 K, x1 = 0.3947	-0.637
323.15 K, x1 = 0.5038	-0.597
323.15 K, x1 = 0.605	-0.517
323.15 K, x1 = 0.7594	-0.34
323.15 K, x1 = 0.8801	-0.18

NCCNCCO [N-(2-aminoethyl)ethanolamine] + O
Conditions	excess molar enthalpy [kcal/mol]
298.15 K, x1 = 0.0298	-0.184
298.15 K, x1 = 0.0496	-0.304
298.15 K, x1 = 0.0699	-0.409
298.15 K, x1 = 0.0992	-0.536
298.15 K, x1 = 0.1503	-0.717
298.15 K, x1 = 0.2015	-0.824
298.15 K, x1 = 0.2962	-0.934
298.15 K, x1 = 0.2982	-0.936
298.15 K, x1 = 0.3484	-0.958
298.15 K, x1 = 0.3994	-0.945
298.15 K, x1 = 0.4454	-0.901
298.15 K, x1 = 0.4962	-0.834
298.15 K, x1 = 0.505	-0.821
298.15 K, x1 = 0.5922	-0.685
298.15 K, x1 = 0.6969	-0.524
298.15 K, x1 = 0.77	-0.409
298.15 K, x1 = 0.9077	-0.186
313.15 K, x1 = 0.0299	-0.224
313.15 K, x1 = 0.0498	-0.315
313.15 K, x1 = 0.0701	-0.411
313.15 K, x1 = 0.1	-0.559
313.15 K, x1 = 0.1495	-0.729
313.15 K, x1 = 0.2002	-0.865
313.15 K, x1 = 0.2956	-0.984
313.15 K, x1 = 0.3547	-1.01
313.15 K, x1 = 0.4001	-0.992
313.15 K, x1 = 0.4461	-0.95
313.15 K, x1 = 0.4893	-0.904
313.15 K, x1 = 0.6009	-0.752
313.15 K, x1 = 0.6723	-0.638
313.15 K, x1 = 0.7961	-0.41
313.15 K, x1 = 0.9041	-0.212
323.15 K, x1 = 0.0301	-0.147
323.15 K, x1 = 0.0498	-0.246
323.15 K, x1 = 0.0697	-0.381
323.15 K, x1 = 0.0992	-0.487
323.15 K, x1 = 0.1491	-0.697
323.15 K, x1 = 0.1988	-0.816
323.15 K, x1 = 0.3014	-0.912
323.15 K, x1 = 0.3527	-0.941
323.15 K, x1 = 0.3958	-0.936
323.15 K, x1 = 0.4971	-0.86
323.15 K, x1 = 0.5908	-0.723
323.15 K, x1 = 0.7056	-0.536
323.15 K, x1 = 0.7484	-0.463
323.15 K, x1 = 0.8999	-0.196

CN(CCO)CCO [N-methyldiethanolamine] + O
313.15 K
Conditions	excess molar enthalpy [kcal/mol]
x1 = 0.1004	-0.337
x1 = 0.1501	-0.431
x1 = 0.1986	-0.496
x1 = 0.2593	-0.543
x1 = 0.3681	-0.552
x1 = 0.4312	-0.535
x1 = 0.4941	-0.495
x1 = 0.593	-0.417
x1 = 0.7778	-0.25
x1 = 0.8203	-0.208

OCCNCCO [diethanolamine] + O
298.15 K
Conditions	excess molar enthalpy [kcal/mol]
x1 = 0.0553	-0.164
x1 = 0.0732	-0.214
x1 = 0.1001	-0.273
x1 = 0.2005	-0.425
x1 = 0.2943	-0.497
x1 = 0.34	-0.51
x1 = 0.4007	-0.498
x1 = 0.4969	-0.458
x1 = 0.5945	-0.385
x1 = 0.6597	-0.332
x1 = 0.7421	-0.261
x1 = 0.8312	-0.172
x1 = 0.9283	-0.0722
